Data as given in patent US7417156B2, “Orally active, antimalarial, anticancer, artemisinin-derived trioxane dimers” (Johns Hopkins University, priority 2002, dated 2008).
Like-named read-outs stand apart in the source and are kept apart here.

Key:
[1] = test system: P. berghei NY malaria parasite; test: Antimalarial efficacies in vivo in mice; details: for ED50: Plasmodium berghei, read-out: ED50
Source text: Neither overt toxicity nor behavioral modification was observed due to drug administration in any of these mouse experiments.

HCT-15 = test: NCI 60 cell line panel screen (SRB); type: cell-based, human; details: for Log10GI50: Colon Cancer, HCT-15; for Log10LC50 / Log10TGI50: HCT-15 (Colon Cancer); for Log10LC50: LC50: PG=−50; for Log10TGI50: TGI: PG=0
SF-295 = test: NCI 60 cell line panel screen (SRB); type: cell-based, human; details: for Log10GI50: CNS Cancer, SF-295; for Log10LC50 / Log10TGI50: SF-295 (CNS Cancer); for Log10LC50: LC50: PG=−50; for Log10TGI50: TGI: PG=0
786-0 = test: NCI 60 cell line panel screen (SRB); type: cell-based, human; details: for Log10LC50: LC50: PG=−50; for Log10GI50: Renal Cancer, 786-0
[2] = Solubility in water at pH 7.4; type: physicochemical
SR = test: NCI 60 cell line panel screen (SRB); type: cell-based, human
NCI-H226 = test: NCI 60 cell line panel screen (SRB); type: cell-based, human
HCC-2998 = test: NCI 60 cell line panel screen (SRB); type: cell-based, human
SW-620 = test: NCI 60 cell line panel screen (SRB); type: cell-based, human
LOX IMVI = test: NCI 60 cell line panel screen (SRB); type: cell-based, human
SK-MEL-5 = test: NCI 60 cell line panel screen (SRB); type: cell-based, human
UACC-62 = test: NCI 60 cell line panel screen (SRB); type: cell-based, human
OVCAR-4 = test: NCI 60 cell line panel screen (SRB); type: cell-based, human
A498 = test: NCI 60 cell line panel screen (SRB); type: cell-based, human
SN12C = test: NCI 60 cell line panel screen (SRB); type: cell-based, human
DU-145 = test: NCI 60 cell line panel screen (SRB); type: cell-based, human
MDA-MB231/ATCC = test: NCI 60 cell line panel screen (SRB); type: cell-based, human
MDA-N = test: NCI 60 cell line panel screen (SRB); type: cell-based, human

C[C@@H]1CC[C@H]2[C@@H](C)C(CC(O)(COC(=O)CCC(=O)O)CC3OC4O[C@]5(C)CC[C@H]6[C@H](C)CC[C@@H]([C@H]3C)C46OO5)OC3O[C@]4(C)CCC1C32OO4 (stereo partly drawn) [Compound 9, tertiary alcohol primary succinate ester]
ED50 ([1]; route IV): 2.4 mg/kg | ED50 ([1]; route PO): 4.8 mg/kg | ED90 ([1]; route IV): 11.0 mg/kg × 4 | % Parasite Supression at 10 mg/kg ([1]; route IV): 83.4% | ED90 ([1]; route PO): 34.0 mg/kg × 4 | % Parasite Supression at 10 mg/kg ([1]; route PO): 55.4% | Log10GI50 (HCT-15): <−8.30 | Log10LC50 (HCT-15): >−4.30 log10M | Log10TGI50 (HCT-15): −5.01 log10M | Log10GI50 (SF-295): <−8.30 | Log10LC50 (SF-295): −4.60 log10M | Log10TGI50 (SF-295): <−8.30 log10M | Log10LC50 (786-0; 786-0 (Renal Cancer)): >−4.30 log10M | Log10GI50 (786-0): <−8.30 | water solubility relative to artelinic acid [2]: ~30 times

CC1CCC2C(C)C(CC(CO)CC3OC4OC5(C)CCC6C(C)CCC(C3C)C46OO5)OC3OC4(C)CCC1C32OO4 (stereo not drawn) [Compound 4, bis-trioxane primary alcohol]
Log10GI50 (SR; Leukemia, SR): <−8.00 | Log10LC50 (SR; SR (Leukemia), LC50: PG=−50): >−4.00 log10M | Log10TGI50 (SR; SR (Leukemia), TGI: PG=0): −4.58 log10M | Log10LC50 (NCI-H226; NCI-H226 (Non-Small Cell Lung Cancer), LC50: PG=−50): >−4.00 log10M | Log10TGI50 (NCI-H226; NCI-H226 (Non-Small Cell Lung Cancer), TGI: PG=0): −4.40 log10M | Log10GI50 (NCI-H226; Non-Small Cell Lung Cancer, NCI-H226): −4.82 | Log10GI50 (HCC-2998; Colon Cancer, HCC-2998): −7.45 | Log10LC50 (HCC-2998; HCC-2998 (Colon Cancer), LC50: PG=−50): −4.59 log10M | Log10TGI50 (HCC-2998; HCC-2998 (Colon Cancer), TGI: PG=0): −5.39 log10M | Log10GI50 (HCT-15): <−8.00 | Log10LC50 (HCT-15): −4.06 log10M | Log10TGI50 (HCT-15): −4.78 log10M | Log10GI50 (SW-620; Colon Cancer, SW-620): <−8.00 | Log10LC50 (SW-620; SW-620 (Colon Cancer), LC50: PG=−50): −4.44 log10M | Log10TGI50 (SW-620; SW-620 (Colon Cancer), TGI: PG=0): −4.89 log10M | Log10GI50 (SF-295): −5.59 | Log10LC50 (SF-295): −4.39 log10M | Log10TGI50 (SF-295): −4.80 log10M | Log10LC50 (LOX IMVI; LOX IMVI (Melanoma), LC50: PG=−50): >−4.00 log10M | Log10TGI50 (LOX IMVI; LOX IMVI (Melanoma), TGI: PG=0): −4.45 log10M | Log10GI50 (LOX IMVI; Melanoma, LOX IMVI): −7.26 | Log10GI50 (SK-MEL-5; Melanoma, SK-MEL-5): −7.90 | Log10LC50 (SK-MEL-5; SK-MEL-5 (Melanoma), LC50: PG=−50): −4.53 log10M | Log10TGI50 (SK-MEL-5; SK-MEL-5 (Melanoma), TGI: PG=0): −7.18 log10M | Log10GI50 (UACC-62; Melanoma, UACC-62): −6.86 | Log10LC50 (UACC-62; UACC-62 (Melanoma), LC50: PG=−50): −4.29 log10M | Log10TGI50 (UACC-62; UACC-62 (Melanoma), TGI: PG=0): −4.74 log10M | Log10LC50 (OVCAR-4; OVCAR-4 (Ovarian Cancer), LC50: PG=−50): −4.16 log10M | Log10TGI50 (OVCAR-4; OVCAR-4 (Ovarian Cancer), TGI: PG=0): −4.62 log10M | Log10GI50 (OVCAR-4; Ovarian Cancer, OVCAR-4): −5.44 | Log10LC50 (786-0; 786-0 (Renal Cancer)): −4.31 log10M | Log10TGI50 (786-0; 786-0 (Renal Cancer), TGI: PG=0): −4.83 log10M | Log10GI50 (786-0): −7.48 | Log10LC50 (A498; A498 (Renal Cancer), LC50: PG=−50): −4.50 log10M | Log10TGI50 (A498; A498 (Renal Cancer), TGI: PG=0): −5.00 log10M | Log10GI50 (A498; Renal Cancer, A498): −6.69 | Log10GI50 (SN12C; Renal Cancer, SN12C): −7.46 | Log10LC50 (SN12C; SN12C (Renal Cancer), LC50: PG=−50): −4.35 log10M | Log10TGI50 (SN12C; SN12C (Renal Cancer), TGI: PG=0): −4.84 log10M | Log10LC50 (DU-145; DU-145 (Prostate Cancer), LC50: PG=−50): −4.36 log10M | Log10TGI50 (DU-145; DU-145 (Prostate Cancer), TGI: PG=0): −4.72 log10M | Log10GI50 (DU-145; Prostate Cancer, DU-145): −6.24 | Log10GI50 (MDA-MB231/ATCC; Breast Cancer, MDA-MB231/ATCC): −5.40 | Log10LC50 (MDA-MB231/ATCC; MDA-MB231/ATCC (Breast Cancer), LC50: PG=−50): >−4.00 log10M | Log10TGI50 (MDA-MB231/ATCC; MDA-MB231/ATCC (Breast Cancer), TGI: PG=0): −4.33 log10M | Log10GI50 (MDA-N; Breast Cancer, MDA-N): −7.54 | Log10LC50 (MDA-N; MDA-N (Breast Cancer), LC50: PG=−50): −4.45 log10M | Log10TGI50 (MDA-N; MDA-N (Breast Cancer), TGI: PG=0): −4.90 log10M
